From ChEMBL document CHEMBL1201862, “PubChem BioAssay data set” (2004) come the findings set out here.

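Grown in 96-well plates, cells were treated for 48 hours with each compound at five concentrations. Insufficient inhibition: endpoint recorded as highest concentration tested. The concentration for 50% growth inhibition is given as GI50.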 Calls of active or inactive are those of the source. No stated cut-off is given here; in the data, active = GI50 up to about 1.1 µM and inactive = higher.

Some test systems named below: MDA-N; T47D; Malme-3M; SF-268; M14; A498; SK-MEL-5; OVCAR-5; CAKI-1; SR; SK-OV-3; A549; HCC 2998; NCI-H226; MCF7; SF-539; 786-0; K562; MDA-MB-435; COLO 205.
Common to all, as to test: growth of human tumour cells (NCI), 48 h

On to `NC(=O)NNc1nc2ccccc2c(=O)n1NC(=O)C(=O)Nc1ccc(Cl)cc1Cl`, for which the GI50 in the assay with MDA-N, in the assay with T47D, in the assay on Malme-3M, in the assay with SF-268, with M14 and in the assay with A498 was > 100 µM (inactive) throughout. Moreover, the GI50 in the assay on SK-MEL-5 is > 100 µM (inactive); in the assay on OVCAR-5, > 100 µM (inactive); in the assay with CAKI-1, > 100 µM (inactive); in the assay with SR, 65.2 µM (inactive); in the assay with SK-OV-3, > 100 µM (inactive); in the assay on A549 it was > 100 µM (inactive). Further, the GI50 in the assay on HCC 2998, in the assay with NCI-H226, in the assay with MCF7, in the assay with SF-539, with 786-0 and in the assay with K562 was > 100 µM (inactive) in each case. Also, the GI50 with MDA-MB-435 is > 100 µM (inactive).

As to `O=C(CC(C(=O)c1ccco1)c1ccsc1)c1ccco1` (configuration not stated), the GI50 in the assay on MDA-N is > 100 µM (inactive); with T47D it was 17.3 µM (inactive); in the assay with SF-268 it was > 100 µM (inactive); in the assay on M14, > 100 µM (inactive); with A498, > 100 µM (inactive); in the assay with SK-MEL-5, > 100 µM (inactive). Further, the GI50 with OVCAR-5 is > 100 µM (inactive); in the assay on COLO 205, > 100 µM (inactive); in the assay with CAKI-1, > 100 µM (inactive); in the assay with SR, 67.8 µM (inactive); in the assay on SK-OV-3, > 100 µM (inactive); in the assay with A549, 28.8 µM (inactive). Further, the GI50 with HCC 2998 was > 100 µM (inactive); with NCI-H226, > 100 µM (inactive); in the assay on MCF7, > 100 µM (inactive); in the assay with SF-539 it was > 100 µM (inactive); with 786-0, > 100 µM (inactive); with K562 it was 78 µM (inactive). For the same molecule, the GI50 in the assay with MDA-MB-435 is > 100 µM (inactive).

As to `O=c1[nH]c(=O)n(COCCOCc2ccccc2)cc1Nc1ccccc1`, the GI50 in the assay with MDA-N is > 100 µM (inactive); in the assay with T47D it was 24.2 µM (inactive); in the assay with Malme-3M, > 100 µM (inactive); with SF-268, > 100 µM (inactive); in the assay with M14, > 100 µM (inactive); in the assay with A498, > 100 µM (inactive). The GI50 in the assay with OVCAR-5, in the assay on COLO 205, in the assay with CAKI-1, with SR, with SK-OV-3 and in the assay on A549 was > 100 µM (inactive) each time. In addition, the GI50 with HCC 2998 is > 100 µM (inactive); with NCI-H226, > 100 µM (inactive); in the assay on MCF7, > 100 µM (inactive); in the assay with SF-539, > 100 µM (inactive); with 786-0, 60.1 µM (inactive); with K562 it was > 100 µM (inactive). Also, the GI50 with MDA-MB-435 is > 100 µM (inactive).

For the molecule `Cn1c(S)nc(C(N)=O)c1N`, the GI50 with MDA-N was > 100 µM (inactive); with T47D it was 72.4 µM (inactive); with Malme-3M, > 100 µM (inactive); in the assay with SF-268, > 100 µM (inactive); in the assay with M14, > 100 µM (inactive); in the assay on A498, > 100 µM (inactive). Further, the GI50 with SK-MEL-5, in the assay on OVCAR-5, in the assay on COLO 205, in the assay on SR, in the assay with SK-OV-3 and with A549 was > 100 µM (inactive) each time. Besides, the GI50 with HCC 2998, with NCI-H226, with MCF7, with SF-539, in the assay on 786-0 and with K562 was > 100 µM (inactive) in each case. In the assay on MDA-MB-435, the GI50 is > 100 µM (inactive).

For `CCCc1nc(Cl)c(Cl)c(Cl)n1`, the GI50 was 33.8 µM (inactive) with MDA-N; 17.5 µM (inactive) in the assay on T47D; 10.7 µM (inactive) with Malme-3M; 11.9 µM (inactive) with SF-268; 25.4 µM (inactive) with M14; > 100 µM (inactive) with A498. The GI50 is 44.5 µM (inactive) with SK-MEL-5; 31.8 µM (inactive) in the assay with OVCAR-5; 25.4 µM (inactive) in the assay on COLO 205; 10.7 µM (inactive) in the assay on CAKI-1; 5.78 µM (inactive) in the assay with SR; 53.6 µM (inactive) in the assay with SK-OV-3. Moreover, the GI50 in the assay with A549 was 19.1 µM (inactive); in the assay on HCC 2998, 0.556 µM (active); in the assay on NCI-H226 it was 36.6 µM (inactive); in the assay with MCF7, 16.1 µM (inactive); in the assay on SF-539, 26.9 µM (inactive); in the assay with 786-0, 19.9 µM (inactive). For the same molecule, the figures for the GI50 in the assay on K562 and in the assay on MDA-MB-435 were 9.53 µM (inactive) and 20.1 µM (inactive), respectively.

Take `C[N+]1(C)CC=C(N2CCOCC2)CC1`: the GI50 with MDA-N, with T47D, in the assay with Malme-3M, in the assay on SF-268, in the assay with M14 and in the assay with A498 was > 10 µM (inactive) in each case. In addition, the GI50 with SK-MEL-5, in the assay on COLO 205, in the assay with CAKI-1, in the assay on SR, with SK-OV-3 and in the assay on A549 was > 10 µM (inactive) throughout. Further, the GI50 in the assay on HCC 2998, with NCI-H226, with MCF7, in the assay on SF-539, with 786-0 and in the assay with K562 was > 10 µM (inactive) in each case. For the same molecule, the GI50 in the assay with MDA-MB-435 is > 10 µM (inactive).

With `Cc1nc(C)c(N2CCN(CN)CC2)c(O)n1`, the GI50 in the assay on MDA-N, with T47D, with Malme-3M, with SF-268, with M14 and in the assay with A498 was > 100 µM (inactive) throughout. The GI50 was > 100 µM (inactive) in the assay on SK-MEL-5; > 100 µM (inactive) in the assay with COLO 205; 8.15 µM (inactive) in the assay with CAKI-1; > 100 µM (inactive) in the assay with SR; > 100 µM (inactive) with SK-OV-3; > 100 µM (inactive) in the assay with A549. In addition, the GI50 was > 100 µM (inactive) with HCC 2998; > 100 µM (inactive) in the assay on NCI-H226; > 100 µM (inactive) with MCF7; > 100 µM (inactive) with SF-539; 88.7 µM (inactive) in the assay with 786-0; > 100 µM (inactive) with K562. In addition, the GI50 with MDA-MB-435 was > 100 µM (inactive).

With `Cc1nc2c(C)ccc([N+](=O)[O-])c2c(NCCCN(C)C)c1C`, the GI50 was 33.1 µM (inactive) in the assay with MDA-N; > 100 µM (inactive) in the assay with T47D; 29 µM (inactive) in the assay on Malme-3M; > 100 µM (inactive) in the assay with SF-268; 19.5 µM (inactive) with M14; > 22.3 µM (inactive) in the assay on A498. The GI50 with SK-MEL-5 was 14.2 µM (inactive); in the assay with OVCAR-5 it was > 72.1 µM (inactive); with COLO 205, 23.9 µM (inactive); with CAKI-1, 66.4 µM (inactive); with SR it was 38.3 µM (inactive); in the assay with SK-OV-3, > 100 µM (inactive). The GI50 in the assay with A549 is > 47.1 µM (inactive); in the assay with HCC 2998, 27.4 µM (inactive); in the assay with NCI-H226, 67.1 µM (inactive); in the assay on MCF7, 46.5 µM (inactive); in the assay with SF-539 it was > 76.9 µM (inactive); in the assay on 786-0, > 90.8 µM (inactive). Besides, the GI50 with K562 was 32.3 µM (inactive); in the assay with MDA-MB-435 it was 39.2 µM (inactive).

As for `CC1(C)OCC([C@H]2O[C@@H](CC(=S)NCCCCCCCCCCCCNC(=S)C[C@H]3O[C@@H](C4COC(C)(C)O4)[C@H]4OC(C)(C)O[C@H]43)[C@H]3OC(C)(C)O[C@H]32)O1` (some centres not stated), the GI50 in the assay with MDA-N was 58.5 µM (inactive); in the assay with T47D it was 19.2 µM (inactive); with SF-268, > 100 µM (inactive); in the assay with M14 it was 52.5 µM (inactive); with A498, 11.9 µM (inactive); with SK-MEL-5, 23.7 µM (inactive). Further, the GI50 in the assay on OVCAR-5 is > 100 µM (inactive); with CAKI-1, 17.5 µM (inactive); with SR, 34.8 µM (inactive); in the assay on A549 it was 14.7 µM (inactive); with HCC 2998 it was 75.7 µM (inactive); in the assay with NCI-H226, > 100 µM (inactive). For the same molecule, the GI50 in the assay on MCF7 was 24.4 µM (inactive); in the assay on SF-539, 57.9 µM (inactive); in the assay with 786-0, 83.8 µM (inactive); with K562, 39.4 µM (inactive); in the assay on MDA-MB-435 it was 70.8 µM (inactive).

On to `O=C1Nc2ccc([N+](=O)[O-])cc2/C1=N/NC(=S)Nc1ccccc1`, for which the GI50 in the assay on MDA-N is 6.35 µM (inactive); in the assay with T47D it was 4.71 µM (inactive); in the assay on M14 it was 6.01 µM (inactive); in the assay with A498, 3.56 µM (inactive); in the assay with SK-MEL-5 it was 2.9 µM (inactive); with OVCAR-5, 12.2 µM (inactive). Also, the GI50 with COLO 205 is 11.7 µM (inactive); in the assay on CAKI-1, 3.53 µM (inactive); in the assay on SR, 5.26 µM (inactive); in the assay with SK-OV-3, 14 µM (inactive); in the assay on A549, 5.05 µM (inactive); with HCC 2998, 3.6 µM (inactive). Further, the GI50 was 18.5 µM (inactive) in the assay with NCI-H226; 4.41 µM (inactive) with MCF7; 12 µM (inactive) in the assay with SF-539; 5.43 µM (inactive) in the assay with 786-0; 4.92 µM (inactive) in the assay on K562; 10.1 µM (inactive) in the assay with MDA-MB-435.

As to `OCC1CCC(n2cnc3c(O)ncnc32)O1` (configuration not stated), the GI50 in the assay with MDA-N was > 1000 µM (inactive); with T47D, > 1000 µM (inactive); in the assay with Malme-3M it was > 100 µM (inactive); with M14 it was > 1000 µM (inactive); in the assay with A498, > 92 µM (inactive); in the assay with SK-MEL-5, > 100 µM (inactive). In addition, the GI50 in the assay on OVCAR-5 was > 100 µM (inactive); with COLO 205, > 100 µM (inactive); in the assay with CAKI-1 it was > 100 µM (inactive); in the assay with SR, > 1000 µM (inactive); with SK-OV-3, > 100 µM (inactive); in the assay with A549 it was > 100 µM (inactive). In addition, the GI50 was > 100 µM (inactive) in the assay on HCC 2998; > 100 µM (inactive) in the assay on NCI-H226; > 100 µM (inactive) in the assay with MCF7; > 1000 µM (inactive) in the assay with 786-0; > 100 µM (inactive) in the assay on K562; > 1000 µM (inactive) in the assay on MDA-MB-435.
